Earlier results, collected in patent US20220287943A1, “METHOD FOR TREATING KERATIN MATERIAL, COMPRISING THE APPLICATION OF AN ORGANIC C1-C6-ALKOXY-SILANE AND AN AMINO ACID AND/OR AMINO ACID DERIVATIVE” (Henkel AG & Co. KGaA, priority 2019, published 2022).

Conditions: for solubility in water: about 25° C.

| SMILES | solubility in water | solubility in water (in words) (at about 25° C.) |
| --- | --- | --- |
| O=S(=O)([O-])c1ccc(N=Nc2c(O)ccc3ccccc23)cc1.[Na+] [Acid Orange 7, sodium salt of 4-[(2-hydroxy-1-naphthy)azo]lbenzene sulphonate] | more than 7 g/L |  |
| Nc1cc(S(=O)(=O)[O-])cc2cc(S(=O)(=O)[O-])c(N=Nc3ccccc3)c(O)c12.[Na+].[Na+] [Acid Red 33, diantrium salt of 5-amino-4-hydroxy-3-(phenylazo)-naphthalene-2,7-disulphonate] | about 2.5 g/L |  |
| O=C([O-])C1=NN(c2ccc(S(=O)(=O)[O-])cc2)C(=O)C1N=Nc1ccc(S(=O)(=O)[O-])cc1.[Na+].[Na+].[Na+] (stereo not drawn) [Acid Yellow 23, trisodium salt of 4,5-dihydro-5-oxo-1-(4-sulfophenyl)-4-((4-sulfophenyl)azo)-1H-pyrazole-3-carboxylic acid] |  | highly soluble in water |
